# Experimental data: patent publication US20240285727A1, “NOVEL THERAPEUTIC PEPTIDES FOR NEURODEGENERATION” (UNIVERSITY OF SOUTHERN CALIFORNIA, priority 2021, published 2024)
# Test system: SHSY5Y
# Test: Analogue screening assay, measured by MTT
# Format: cell-based
# Settings: as a percentage compared to SHMOOSE (SHMOOSE activity as 100%)
# Source text: FIG. 10 depicts an analogue screening assay, measured by MTT. Top: each bar represents a fragment (25-amino acid in length) of SHMOOSE. Bottom: each bar represents a phosphomimetic fragment (25-amino acid in length) of SHMOOSE. Cell model is SHSY5Y. The Inventors made 103 analogues/derivatives (see Table 1).
# The Inventors made 103 analogues (Table 1). Referring to FIG. 10, in the top figure, each bar represents a 25-amino acid fragment of the SHMOOSE peptide. […] The sequence length of the analogue is 14 amino acids and 3 different analysis windows of the analogue, each having 11 amino acids, were characterized. […]
row,Substance,% Efficacy [%]
1,1 (MPPCLTTWLSQLLKDNSYPLVLGPK) [compound 1],62.23
2,2 (PPCLTTWLSQLLKDNSYPLVLGPKN) [compound 2],37.99
3,3 (PCLTTWLSQLLKDNSYPLVLGPKNF) [compound 3],115.35
4,4 (CLTTWLSQLLKDNSYPLVLGPKNFG) [compound 4],12.47
5,5 (LTTWLSQLLKDNSYPLVLGPKNFGA) [compound 5],−13.61
6,6 (TTWLSQLLKDNSYPLVLGPKNFGAT) [compound 6],−42.74
7,7 (TWLSQLLKDNSYPLVLGPKNFGATP) [compound 7],−113.24
8,8 (WLSQLLKDNSYPLVLGPKNFGATPN) [compound 8],−3.65
9,9 (LSQLLKDNSYPLVLGPKNFGATPNK) [compound 9],−82.17
10,10 (SQLLKDNSYPLVLGPKNFGATPNKS) [compound 10],−107.19
11,11 (QLLKDNSYPLVLGPKNFGATPNKSN) [compound 11],−85.19
12,12 (LLKDNSYPLVLGPKNFGATPNKSNN) [compound 12],−97.85
13,13 (LKDNSYPLVLGPKNFGATPNKSNNH) [compound 13],−58.60
14,14 (KDNSYPLVLGPKNFGATPNKSNNHA) [compound 14],−147.96
15,15 (DNSYPLVLGPKNFGATPNKSNNHAH) [compound 15],51.51
16,16 (NSYPLVLGPKNFGATPNKSNNHAHY) [compound 16],−79.03
17,17 (SYPLVLGPKNFGATPNKSNNHAHYY) [compound 17],−195.89
18,18 (YPLVLGPKNFGATPNKSNNHAHYYN) [compound 18],−133.09
19,19 (PLVLGPKNFGATPNKSNNHAHYYNH) [compound 19],−191.36
20,20 (LVLGPKNFGATPNKSNNHAHYYNHP) [compound 20],−248.54
21,21 (VLGPKNFGATPNKSNNHAHYYNHPN) [compound 21],−50.24
22,22 (LGPKNFGATPNKSNNHAHYYNHPNP) [compound 22],−140.81
23,23 (GPKNFGATPNKSNNHAHYYNHPNPD) [compound 23],−210.91
24,24 (PKNFGATPNKSNNHAHYYNHPNPDF) [compound 24],−185.28

row,Substance,% Efficacy [%]
1,25 (KNFGATPNKSNNHAHYYNHPNPDFP) [compound 25],−8.52
2,26 (NFGATPNKSNNHAHYYNHPNPDFPN) [compound 26],−232.44
3,27 (FGATPNKSNNHAHYYNHPNPDFPNS) [compound 27],−226.16
4,28 (GATPNKSNNHAHYYNHPNPDFPNSP) [compound 28],−229.42
5,29 (ATPNKSNNHAHYYNHPNPDFPNSPH) [compound 29],−262.37
6,30 (TPNKSNNHAHYYNHPNPDFPNSPHP) [compound 30],−367.82
7,31 (PNKSNNHAHYYNHPNPDFPNSPHPY) [compound 31],−477.36
8,32 (NKSNNHAHYYNHPNPDFPNSPHPYH) [compound 32],−145.56
9,33 (KSNNHAHYYNHPNPDFPNSPHPYHP) [compound 33],−119.66
10,34 (SNNHAHYYNHPNPDFPNSPHPYHPR) [compound 34],−195.91
11,35 (GPKNFGATPNKSNNHAHYYNHPNPN) [compound 35],8.68
12,36 (PKNFGATPNKSNNHAHYYNHPNPNF) [compound 36],−120.40
13,37 (KNFGATPNKSNNHAHYYNHPNPNFP) [compound 37],−227.50
14,38 (NFGATPNKSNNHAHYYNHPNPNFPN) [compound 38],−196.67
15,40 (GATPNKSNNHAHYYNHPNPNFPNSP) [compound 40],−302.11
16,41 (ATPNKSNNHAHYYNHPNPNFPNSPH) [compound 41],−188.45
17,42 (TPNKSNNHAHYYNHPNPNFPNSPHP) [compound 42],−392.68
18,45 (KSNNHAHYYNHPNPNFPNSPHPYHP) [compound 45],−292.14
19,46 (SNNHAHYYNHPNPNFPNSPHPYHPR) [compound 46],−59.27
20,47 (MPPCLDDWLDQLLKDNDDPLVLGPK) [compound 47],−150.17
21,48 (PPCLDDWLDQLLKDNDDPLVLGPKN) [compound 48],−159.22
22,49 (PCLDDWLDQLLKDNDDPLVLGPKNF) [compound 49],−168.90
23,50 (CLDDWLDQLLKDNDDPLVLGPKNFG) [compound 50],−340.42
24,51 (LDDWLDQLLKDNDDPLVLGPKNFGA) [compound 51],−132.69

row,Substance,% Efficacy [%]
1,52 (DDWLDQLLKDNDDPLVLGPKNFGAD) [compound 52],−38.98
2,53 (DWLDQLLKDNDDPLVLGPKNFGADP) [compound 53],−76.54
3,54 (WLDQLLKDNDDPLVLGPKNFGADPN) [compound 54],−45.99
4,55 (LDQLLKDNDDPLVLGPKNFGADPNK) [compound 55],−38.64
5,56 (DQLLKDNDDPLVLGPKNFGADPNKD) [compound 56],−93.30
6,57 (QLLKDNDDPLVLGPKNFGADPNKDN) [compound 57],−1.36
7,58 (LLKDNDDPLVLGPKNFGADPNKDNN) [compound 58],−58.59
8,60 (KDNDDPLVLGPKNFGADPNKDNNHA) [compound 60],−146.91
9,62 (NDDPLVLGPKNFGADPNKDNNHAHD) [compound 62],−250.35
10,63 (DDPLVLGPKNFGADPNKDNNHAHDD) [compound 63],−216.49
11,64 (DPLVLGPKNFGADPNKDNNHAHDDN) [compound 64],−254.41
12,65 (PLVLGPKNFGADPNKDNNHAHDDNH) [compound 65],−163.31
13,66 (LVLGPKNFGADPNKDNNHAHDDNHP) [compound 66],−157.61
14,67 (VLGPKNFGADPNKDNNHAHDDNHPN) [compound 67],−231.08
15,68 (LGPKNFGADPNKDNNHAHDDNHPNP) [compound 68],−144.36
16,69 (GPKNFGADPNKDNNHAHDDNHPNPD) [compound 69],−184.35
17,70 (PKNFGADPNKDNNHAHDDNHPNPDF) [compound 70],−157.35
18,71 (KNFGADPNKDNNHAHDDNHPNPDFP) [compound 71],−113.32
19,72 (NFGADPNKDNNHAHDDNHPNPDFPN) [compound 72],−28.57
20,73 (FGADPNKDNNHAHDDNHPNPDFPND) [compound 73],−306.02
21,74 (GADPNKDNNHAHDDNHPNPDFPNDP) [compound 74],−228.29
22,75 (ADPNKDNNHAHDDNHPNPDFPNDPH) [compound 75],−157.10
23,76 (DPNKDNNHAHDDNHPNPDFPNDPHP) [compound 76],−184.63
24,78 (NKDNNHAHDDNHPNPDFPNDPHPDH) [compound 78],−240.90

row,Substance,% Efficacy [%]
1,79 (KDNNHAHDDNHPNPDFPNDPHPDHP) [compound 79],−183.31
2,80 (DNNHAHDDNHPNPDFPNDPHPDHPR) [compound 80],−214.13
3,81 (GPKNFGADPNKDNNHAHDDNHPNPN) [compound 81],−172.67
4,82 (PKNFGADPNKDNNHAHDDNHPNPNF) [compound 82],−146.18
5,84 (NFGADPNKDNNHAHDDNHPNPNFPN) [compound 84],−84.90
6,85 (FGADPNKDNNHAHDDNHPNPNFPND) [compound 85],−476.83
7,86 (GADPNKDNNHAHDDNHPNPNFPNDP) [compound 86],−62.75
8,88 (DPNKDNNHAHDDNHPNPNFPNDPHP) [compound 88],−84.19
9,90 (NKDNNHAHDDNHPNPNFPNDPHPDH) [compound 90],−226.81
10,91 (KDNNHAHDDNHPNPNFPNDPHPDHP) [compound 91],−104.32
11,92 (DNNHAHDDNHPNPNFPNDPHPDHPR) [compound 92],−85.47
12,97 (MPPCITTWLSQLLKDNSYPLVLGPKNFGATPNKSNNHAHYYNHPNPDFPNSPHPYHPR) [compound 97],−1.709
13,98 (MPPCITTWISQLLKDNSYPLVLGPKNFGATPNKSNNHAHYYNHPNPDFPNSPHPYHPR) [compound 98],1.709
14,99 (MPPCITTWISQILKDNSYPLVLGPKNFGATPNKSNNHAHYYNHPNPDFPNSPHPYHPR) [compound 99],−7.692
15,100 (MPPCITTWISQIIKDNSYPLVLGPKNFGATPNKSNNHAHYYNHPNPDFPNSPHPYHPR) [compound 100],4.274
16,101 (MPPCLTTWISQIIKDNSYPLVLGPKNFGATPNKSNNHAHYYNHPNPDFPNSPHPYHPR) [compound 101],−10.26
17,102 (MPPCLTTWLSQIIKDNSYPLVLGPKNFGATPNKSNNHAHYYNHPNPDFPNSPHPYHPR) [compound 102],−25.64
18,103 (MPPCLTTWLSQLIKDNSYPLVLGPKNFGATPNKSNNHAHYYNHPNPDFPNSPHPYHPR) [compound 103],86.32
19,104 (MPSCLTTWLSQLLKDNSYPLVLGPKNFGATPNKSNNHAHYYNHPNPDFPNSPHPYHPR) [compound 104],82.05
20,105 (MPSCLTTWLSSLLKDNSYPLVLGPKNFGATPNKSNNHAHYYNHPNPDFPNSPHPYHPR) [compound 105],44.44
21,106 (MPSCLTTWLSSLLSDNSYPLVLGPKNFGATPNKSNNHAHYYNHPNPDFPNSPHPYHPR) [compound 106],−14.53
